Here are results for 1 compound from US20260248766A1, “GLUCOKINASE ACTIVATOR FOR COGNITIVE DISORDERS AND NEURODEGENERATIVE DISEASES” (HUA MEDICINE (SHANGHAI) LTD., priority 2023, published 2026).

Format in all cases: in vivo, rat
Test [1] deals with ionotropic glutamate receptor subunit GluN2B. In words: Western blot of GluN2B in hippocampus of GK rats. Particulars: hippocampus of GK rats after long-term treatment; FIG. 12. An excerpt:
(§1) The tissue sampling, protein extraction and quantification, preparation of the denaturated protein samples, and protein gel electrophoresis were completed successively using the steps (I) to (IV) of the above example 2.
(§2) Then, the gel obtained from the electrophoresis was used for membrane transfer. Biomarkers GluN2A and GluN2B were transferred to a membrane using a wet transfer method. The membrane was assembled in the following order: negative electrode-sponge-filter paper-gel-PVDF membrane-filter paper-sponge-positive electrode. The membrane transfer was performed at a constant voltage of 100 V in an ice bath for 70 minutes.
(§3) After the membrane transfer was completed, the PVDF membranes were blocked with BSA or non-fat milk (GluN2A and GluN2B membranes were blocked with BSA, and GAPDH membrane was blocked with non-fat milk), respectively, at room temperature for 1 hour. […] The eluted PVDF membranes were scanned using an electrochemiluminescence (ECL) method with a contact-based non-destructive quantitative imaging instrument (E-blot) to give a western blot image.
(§4) Calculation of the relative expression level of a protein: The western blot images were quantified using an image processing software ImageJ, and the gray value of a target band was measured and used to characterize the protein expression level of the target band. […]
On the technique in general: Immunoblotting shows a protein as a band on a membrane.

Test [2] deals with insulin receptor isoform IR-A protein. In words: Western blot of IR-A protein in hippocampus of GK rats. The note with it: hippocampus of GK rats after 37 weeks of treatment (43 weeks old); FIG. 5. On the procedure: (§5) GK rats were euthanized after 37 weeks of treatment, i.e., when the rats were 43 weeks old, and hippocampal tissue of the GK rats was collected for western blotting to detect the protein expression levels of the biomarkers.
(§6) Animals under anesthesia were rapidly decapitated and their brains were removed in a hypothermic environment. The hippocampal tissue was separated on ice, placed in cryovials, flash-frozen in liquid nitrogen, and then stored in a −80° C. freezer for later use.
(§7) • (1) The tissue homogenizer (TissueLyser II high-throughput tissue homogenizer, QIAGEN) was pre-cooled at −20° C. The hippocampal tissue was taken out from the −80° C. freezer. […]
(§8) Based on the protein concentration determined in step (II), an appropriate amount of protein lysis buffer was added to adjust the protein concentration of each group to a suitable level. […]
(§9) After the membrane transfer was completed, the PVDF membranes were blocked with non-fat milk at room temperature for 1 hour. […] The eluted PVDF membranes were scanned using an electrochemiluminescence (ECL) method with a contact-based non-destructive quantitative imaging instrument (E-blot) to give a western blot image. […]

Test [3] has as its system GK rats. In words: Morris water maze spatial memory test (probe test) in GK rats. Particulars: 8 mg/kg by gavage twice daily, about 27 weeks of treatment (33 weeks old), 1 minute probe test. On the procedure: (§10) GK rats were randomly divided into the following treatment groups: a GK rat-solvent treatment group (n=9) and a GK rat-Dorzagliatin (8 mg/kg) treatment group (n=8). Age-matched Wistar rats were used as the normal control group, i.e., the Wistar rat-solvent group (n=9). The treatment began at six weeks of age. The rats were administered either the solvent or Dorzagliatin by gavage twice daily, morning and evening. Peripheral blood was collected multiple times from the animals throughout the growth cycle, and the fasting blood glucose levels of the animals were tested (the fasting blood glucose levels of the three groups of rats were tested and analyzed at weeks 6, 8, 12, 16, 20, 29, and 31).
The Morris water maze test is a commonly used behavioral method to assess the spatial memory, working memory, and spatial discrimination abilities of rodents. […]
Preparation of the experimental environment: The laboratory environment was kept quiet. […] During the test, the latent period of escape, swimming path (distance), speed, and quadrant preference of a rat were recorded using the ANY-maze system. […]
Spatial memory test (probe test): The spatial memory test was performed 24 hours after the end of the training phase. […] The time spent in the original platform quadrant and the swimming distances were recorded, and the data of each group of animals were statistically analyzed.

Test [4] concerns glucose transporter 3 (GLUT3). In words: Western blot of GLUT3 in hippocampus of GK rats. The note with it: hippocampus of GK rats after long-term treatment; FIG. 9.
Text: as §1
(§11) Then, the gel obtained from the electrophoresis was used for membrane transfer. Biomarkers GLUT1, GLUT3, and GAPDH were transferred to a membrane using a semi-dry transfer method. The membrane was assembled in the following order: negative electrode-filter paper-gel-PVDF membrane-filter paper-positive electrode. The membrane transfer was performed at a constant current of 0.2 A at room temperature for 65 minutes.
(§12) After the membrane transfer was completed, the PVDF membranes (GLUT1, GLUT3, GAPDH) were blocked with non-fat milk at room temperature for 1 hour.
(§13) Calculation of the relative expression level of a protein: The western blot images were quantified using an image processing software ImageJ, and the gray value of a target band was measured and used to characterize the protein expression level of the target band. The gray value of a target protein was divided by the gray value of the internal reference protein GAPDH to perform normalization, which characterized the relative expression level of the target band. Statistical analysis was performed on the normalized value of each target band.

In test [5] the test system is GK rats. In words: Fasting blood glucose in GK rats under long-term treatment. The note with it: 8 mg/kg by gavage twice daily from six weeks of age, tested at weeks 6, 8, 12, 16, 20, 29, 31, FIG. 1.
Text: Goto-Kakizaki (GK) rats are a non-obese, spontaneously occurring type 2 diabetes rat model obtained through repeated inbreeding of Wistar rats with glucose tolerance at the upper limit over several generations. […] The hippocampus is a key functional brain region regulating learning and memory abilities. Due to the presence of progressive diabetes symptoms, typical neurodegenerative diseases, and memory deficits, GK rats can be used to evaluate the effects of a drug on preventing memory decline.
as §10

The test system of test [6] is ionotropic glutamate receptor subunit GluN2A. In words: Western blot of GluN2A in hippocampus of GK rats. The note with it: hippocampus of GK rats after long-term treatment; FIG. 11.
Text: as §1, §2, §3, §4

The test system of test [7] is insulin receptor isoform IR-B protein. In words: Western blot of IR-B protein in hippocampus of GK rats. Particulars: hippocampus of GK rats after 37 weeks of treatment (43 weeks old); FIG. 6. On the procedure:
as §5, §6, §7, §8, §9

Test [8] deals with glucose transporter 1 (GLUT1). In words: Western blot of GLUT1 in hippocampus of GK rats. Particulars: hippocampus of GK rats after long-term treatment; FIG. 8.
Text: as §1, §11, §12, §13

Molecules are shown by their SMILES.

On to `CC(C)C[C@@H](C(=O)Nc1ccn(C[C@@H](O)CO)n1)N1CC(Oc2ccccc2Cl)=CC1=O` [Dorzagliatin], for which, in test [1], the “normalized value of GluN2B band (gray value / GAPDH, mean±SEM)” value came to 0.87±0.02. Besides, the “normalized value of IR-A protein band (gray value / GAPDH, mean±SEM)” value in test [2] was 1.46±0.08. Also, the “time spent in the original platform quadrant (mean±SEM)” value in the test on GK rats [3] (FIG. 2) was 20.1 s. For the same compound, the “swimming distance in the original platform quadrant (mean±SEM)” value with GK rats [3] (FIG. 3) came to 4.21 m. The “normalized value of GLUT3 band (gray value / GAPDH, mean±SEM)” value in test [4] was 1.22±0.13. In addition, the “fasting blood glucose levels vs GK rat-solvent group” value in the test with GK rats [5] was “significantly lower than those of the GK rat-solvent group”. Moreover, the “normalized value of GluN2A band (gray value / GAPDH, mean±SEM)” value in test [6] came to 1.05±0.07. The “normalized value of IR-B protein band (gray value / GAPDH, mean±SEM)” value in test [7] came out at 1.64±0.06. In test [8], the “normalized value of GLUT1 band (gray value / GAPDH, mean±SEM)” value came out at 1.67±0.06.
